Here are results for 24 molecules from patent US12577257B2, “Heterocyclic compounds” (Hoffmann-La Roche Inc., priority 2018, dated 2026).

The experiment has as its target T1, MAGL (Homo sapiens, UniProt Q99685).
T1 sequence (Q99685 1-303): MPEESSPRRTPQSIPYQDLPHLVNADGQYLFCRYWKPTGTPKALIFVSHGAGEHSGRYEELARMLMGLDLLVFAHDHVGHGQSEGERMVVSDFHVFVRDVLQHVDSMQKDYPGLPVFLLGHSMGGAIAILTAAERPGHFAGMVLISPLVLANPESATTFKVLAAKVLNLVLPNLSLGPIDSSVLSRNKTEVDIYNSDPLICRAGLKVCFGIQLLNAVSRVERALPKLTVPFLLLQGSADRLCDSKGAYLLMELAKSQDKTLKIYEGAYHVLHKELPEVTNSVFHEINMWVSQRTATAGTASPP
The experiment is described as follows: 2-AG assay: MAGL hydrolysis of 2-arachidonoylglycerol to arachidonic acid, followed by mass spectrometry. Type of experiment: biochemical. To be noted: footnote [a]: measured in 2-AG assay. Here is the method: Alternatively, compounds were profiled for MAGL inhibitory activity by determining the enzymatic activity by following the hydrolysis of the natural substrate 2-arachidonoylglycerol resulting in arachidonic acid, which can be followed by mass spectrometry. This assay is hereinafter abbreviated “2-AG assay”.
The 2-AG assay was carried out in 384 well assay plates (PP, Greiner Cat #784201) in a total volume of 20 μL. Compound dilutions were made in 100% DMSO (VWR Chemicals 23500.297) in a polypropylene plate in 3-fold dilution steps to give a final concentration range in the assay from 12.5 μM to […]. 0.25 μL compound dilutions (100% DMSO) were added to 9 μL MAGL in assay buffer (50 mM TRIS (GIBCO, 15567-027), 1 mM EDTA (Fluka, 03690-100 ml), 0.01% (v/v) Tween. After shaking, the plate was incubated for 15 min at RT. To start the reaction, 10 μL 2-arachidonoylglycerol in assay buffer was added. The final concentrations in the assay was […] and 8 μM 2-arachidonoylglycerol. After shaking and 30 min incubation at RT, the reaction was quenched by the addition of 40 μL of acetonitrile containing 4 μM of d8-arachidonic acid. The amount of arachidonic acid was traced by an online SPE system (Agilent Rapidfire) coupled to a triple quadrupole mass spectrometer (Agilent 6460). A C18 SPE cartridge (G9205A) was used in an acetonitrile/water liquid setup. The mass spectrometer was operated in negative electrospray mode following the mass transitions 303.1→259.1 for arachidonic acid and 311.1→267.0 for d8-arachidonic acid. The activity of the compounds was calculated based on the ratio of intensities [arachidonic acid/d8-arachidonic acid].
The IC50 is the concentration that inhibits the measured activity by half. Read a high IC50 as weaker potency. In the case of `O=C1CO[C@H]2CCN(C(=O)N3CCC4(CC3)C[C@@H](NS(=O)(=O)c3ccccc3)CO4)C[C@H]2N1` (mixture of isomers) [Example 18, rac-(4aR,8aS)—N—((R)-8-(3-oxooctahydro-2H-pyrido[4,3-b][1,4]oxazine-6-carbonyl)-1-oxa-8-azaspiro[4.5]decan-3-yl)benzenesulfonamide], the IC50 turned out to be 316 nM. Then `O=C1CO[C@H]2CCN(C(=O)N3CCC4(CC3)C[C@H](NS(=O)(=O)c3ccccc3)CO4)C[C@H]2N1` (mixture of isomers) [Example 19, rac-(4aR,8aS)-N-((S)-8-(3-oxooctahydro-2H-pyrido[4,3-b][1,4]oxazine-6-carbonyl)-1-oxa-8-azaspiro[4.5]decan-3-yl)benzenesulfonamide], with 821 nM. Then `O=C1CO[C@H]2CCN(C(=O)N3CCC4(CC3)CC(NCc3ccc(F)cc3Cl)CO4)C[C@H]2N1` (mixture of isomers) [Example 38, rac-(4aR,8aS)-6-(3-((2-Chloro-4-fluorobenzyl)amino)-1-oxa-8-azaspiro[4.5]decane-8-carbonyl)hexahydro-2H-pyrido[4,3-b][1,4]oxazin-3(4H)-one], with 416 nM; and `CN(Cc1ccc(F)cc1Cl)C1COC2(CCN(C(=O)N3CC[C@@H]4OCC(=O)N[C@@H]4C3)CC2)C1` (single isomer, unassigned) [Example 33], with 129 nM. Then `CN(Cc1ccc(F)cc1Cl)C1COC2(CCN(C(=O)N3CC[C@@H]4OCC(=O)N[C@@H]4C3)CC2)C1` (single isomer, unassigned) [Example 34], with 133 nM; and `O=C1CO[C@H]2CCN(C(=O)N3CCC4(CC3)CC(NCc3ccc(F)cc3Cl)CO4)C[C@H]2N1` (single isomer, unassigned) [Example 35], with 182 nM. The molecule `O=C1CO[C@H]2CCN(C(=O)N3CCC4(CC3)CC(NCc3ccc(F)cc3Cl)CO4)C[C@H]2N1` (single isomer, unassigned) [Example 36] registered an IC50 of 279 nM. The figure for `O=C1CO[C@H]2CCN(C(=O)N3CCC4(CC3)CC(NS(=O)(=O)c3ccc(C(F)(F)F)cc3)CO4)C[C@H]2N1` (stereo in doubt) [Example 29, N-((S)-8-((4aR,8aS)-3-Oxooctahydro-2H-pyrido[4,3-b][1,4]oxazine-6-carbonyl)-1-oxa-8-azaspiro[4.5]decan-3-yl)-4-(trifluoromethyl)benzenesulfonamide] is 47.5 nM. Then `O=C1CO[C@H]2CCN(C(=O)N3CCC4(CC3)CC(NS(=O)(=O)c3ccc(F)cc3Cl)CO4)C[C@H]2N1` (stereo in doubt) [Example 31, 2-Chloro-4-fluoro-N-((S)-8-((4aR,8aS)-3-oxooctahydro-2H-pyrido[4,3-b][1,4]oxazine-6-carbonyl)-1-oxa-8-azaspiro[4.5]decan-3-yl)benzenesulfonamide], with 51.3 nM; and `O=C1CO[C@H]2CCN(C(=O)N3CCC4(CC3)CC(NS(=O)(=O)c3cccc(C(F)(F)F)c3)CO4)C[C@H]2N1` (stereo in doubt) [Example 32, N-((S)-8-((4aR,8aS)-3-Oxooctahydro-2H-pyrido[4,3-b][1,4]oxazine-6-carbonyl)-1-oxa-8-azaspiro[4.5]decan-3-yl)-3-(trifluoromethyl)benzenesulfonamide], with 124 nM. The figure for `O=C1CO[C@H]2CCN(C(=O)N3CC4(CC(Oc5ccc(F)cc5Cl)C4)C3)C[C@H]2N1` (stereo in doubt) [Example 41, (4aR,8aS)-6-(6-(2-Chloro-4-fluorophenoxy)-2-azaspiro[3.3]heptane-2-carbonyl)hexahydro-2H-pyrido[4,3-b][1,4]oxazin-3(4H)-one] is 466 nM. With `O=C1CO[C@H]2CCN(C(=O)N3CC4(CC(Oc5ccc(F)cc5Cl)C4)C3)C[C@H]2N1` [Example 1, (4aR,8aS)-6-(6-(2-Chloro-4-fluorophenoxy)-2-azaspiro[3.3]heptane-2-carbonyl)hexahydro-2H-pyrido[4,3-b][1,4]oxazin-3(4H)-one], 4.5 nM corresponded to half-maximal inhibition (IC50). Then `O=C1CO[C@H]2CCN(C(=O)N3CC4(CC(Oc5ccc(C(F)(F)F)cc5)C4)C3)C[C@H]2N1` [Example 2, (4aR,8aS)-6-(6-(4-(Trifluoromethyl)phenoxy)-2-azaspiro[3.3]heptane-2-carbonyl)hexahydro-2H-pyrido[4,3-b][1,4]oxazin-3(4H)-one], with 5 nM; and `O=C1CO[C@H]2CCN(C(=O)N3CC4(CC(Oc5ccc(C(F)(F)F)cc5F)C4)C3)C[C@H]2N1` [Example 3, (4aR,8aS)-6-(6-(2-Fluoro-4-(trifluoromethyl)phenoxy)-2-azaspiro[3.3]heptane-2-carbonyl)hexahydro-2H-pyrido[4,3-b][1,4]oxazin-3(4H)-one], with 2.3 nM; and `O=C1CO[C@H]2CCN(C(=O)N3CC4(CC(Oc5ccc(OC(F)(F)F)cc5F)C4)C3)C[C@H]2N1` [Example 4, (4aR,8aS)-6-(6-(2-Fluoro-4-(trifluoromethoxy)phenoxy)-2-azaspiro[3.3]heptane-2-carbonyl)hexahydro-2H-pyrido[4,3-b][1,4]oxazin-3(4H)-one], with 3 nM. Consider `O=C1CO[C@H]2CCN(C(=O)N3CC4(CC(Oc5ccc(OC(F)(F)F)cc5Cl)C4)C3)C[C@H]2N1` [Example 5, (4aR,8aS)-6-(6-(2-Chloro-4-(trifluoromethoxy)phenoxy)-2-azaspiro[3.3]heptane-2-carbonyl)hexahydro-2H-pyrido[4,3-b][1,4]oxazin-3(4H)-one], for which the IC50 amounted to 0.6 nM. `COc1ccc(C(F)(F)F)cc1OC1CC2(C1)CN(C(=O)N1CC[C@@H]3OCC(=O)N[C@@H]3C1)C2` [Example 6, (4aR,8aS)-6-(6-(2-Methoxy-5-(trifluoromethyl)phenoxy)-2-azaspiro[3.3]heptane-2-carbonyl)hexahydro-2H-pyrido[4,3-b][1,4]oxazin-3(4H)-one] gave an IC50 of 2.8 nM. The figure for `O=C1CO[C@H]2CCN(C(=O)N3CC4(CC(Oc5ccc(Cl)cc5C(F)(F)F)C4)C3)C[C@H]2N1` [Example 7, (4aR,8aS)-6-(6-(4-Chloro-2-(trifluoromethyl)phenoxy)-2-azaspiro[3.3]heptane-2-carbonyl)hexahydro-2H-pyrido[4,3-b][1,4]oxazin-3(4H)-one] is 8.5 nM. For `O=C1CO[C@H]2CCN(C(=O)N3CC4(CC(Oc5ccc(F)cc5F)C4)C3)C[C@H]2N1` [Example 8, (4aR,8aS)-6-(6-(2,4-Difluorophenoxy)-2-azaspiro[3.3]heptane-2-carbonyl)hexahydro-2H-pyrido[4,3-b][1,4]oxazin-3(4H)-one], the IC50 is 10.7 nM. `O=C1CO[C@H]2CCN(C(=O)N3CC4(CC(Oc5cc(F)cc(C(F)(F)F)c5)C4)C3)C[C@H]2N1` [Example 9, (4aR,8aS)-6-(6-(3-Fluoro-5-(trifluoromethyl)phenoxy)-2-azaspiro[3.3]heptane-2-carbonyl)hexahydro-2H-pyrido[4,3-b][1,4]oxazin-3(4H)-one] came in with an IC50 of 12.5 nM. Then `O=C1CO[C@H]2CCN(C(=O)N3CCC4(CC3)CC(Oc3ccc(C(F)(F)F)cc3F)C4)C[C@H]2N1` [Example 10, (4aR,8aS)-6-(2-(2-Fluoro-4-(trifluoromethyl)phenoxy)-7-azaspiro[3.5]nonane-7-carbonyl)hexahydro-2H-pyrido[4,3-b][1,4]oxazin-3(4)-one], with 0.8 nM. Then `O=C1CO[C@H]2CCN(C(=O)N3CC4(CN(Cc5ccc(F)cc5Cl)C4)C3)C[C@H]2N1` [Example 11, (4aR,8aS)-6-(6-(2-Chloro-4-fluorobenzyl)-2,6-diazaspiro[3.3]heptane-2-carbonyl)hexahydro-2H-pyrido[4,3-b][1,4]oxazin-3(4H)-one], with 19.8 nM. `O=C1CO[C@H]2CCN(C(=O)N3CC4(CN(Cc5ccc(C(F)(F)F)cc5F)C4)C3)C[C@H]2N1` [Example 12, (4aR,8aS)-6-(6-(2-Fluoro-4-(trifluoromethyl)benzyl)-2,6-diazaspiro[3.3]heptane-2-carbonyl)hexahydro-2H-pyrido[4,3-b][1,4]oxazin-3(4H)-one] came in with an IC50 of 15.7 nM. The figure for `O=C1CO[C@H]2CCN(C(=O)N3CCC4(CC3)CN(Cc3ccc(C(F)(F)F)cc3F)C4)C[C@H]2N1` [Example 13, (4aR,8aS)-6-(2-(2-Fluoro-4-(trifluoromethyl)benzyl)-2,7-diazaspiro[3.5]nonane-7-carbonyl)hexahydro-2H-pyrido[4,3-b][1,4]oxazin-3(4H)-one] is 76.4 nM.
